pIC50: −log10 of the molar value. One block for each compound: values may come before it. Active and inactive are the calls of the source. The rule behind the calls is not given here.
Legend:
HCT-116 [1] = conditions: Homo sapiens, 0.2 uM
Description: Downregulation of TOP1 expression in human HCT116 cells at 0.2 uM after 24 hrs by Western blot analysis

Mus musculus [2] = organism: Mus musculus; conditions: 28 mg/kg
Description: In vivo inhibition of HSP90 in mouse xenografted with human Capan1 cells assessed as increase in HSP70 protein expression at 28 mg/kg, iv for every 2 days measured at 2 hrs post last dose by Western blot analysis

Mus musculus [3] = organism: Mus musculus; conditions: 28 mg/kg; remark: listed apart in the source
Description: In vivo inhibition of HSP90 in mouse xenografted with human Capan1 cells assessed as decrease in AKT protein expression at 28 mg/kg, iv for every 2 days measured at 2 hrs post last dose by Western blot analysis

CAPAN-1 [4] = conditions: Homo sapiens, 28 mg/kg
Description: Antitumor activity against human Capan1 cells xenografted in mouse assessed as reduction in tumor weight at 28 mg/kg, iv for every 2 days and measured twice per week by caliper method

CAPAN-1 [5] = test: Antitumor activity against human Capan1 cells xenografted in mouse assessed as reduction in tumor volume at 28 mg/kg, iv for every 2 days and measured twice per week by microcaliper method relative to control; format: functional
A549 [6] = conditions: Homo sapiens, 0.2 uM
Description: Downregulation of TOP1 expression in human A549 cells at 0.2 uM after 24 hrs by Western blot analysis

L02 = test: Cytotoxicity agains human HL7702 cells assessed as reduction in cell viability after 72 hrs by SRB assay; format: cell-based; conditions: L02, 72 h
MIA PaCa-2 = test: Antiproliferative activity against human MIAPaCa2 cells assessed as reduction in cell viability after 72 hrs by SRB assay; format: functional, cell-based; conditions: MIA PaCa-2, 72 h
HCT-116 [7] = test: Antitumor activity against human HCT116 cells xenografted in mouse assessed as reduction in tumor volume at 50 mg/kg, iv for 5 consecutive days per week and measured every 3 to 4 days up to 14 days by microcaliper analysis relative to control; format: functional
A549 [8] = test: Antiproliferative activity against human A549 cells assessed as reduction in cell viability after 72 hrs by SRB assay; format: functional, cell-based; conditions: A549, 72 h
HCT-116 [9] = test: Antiproliferative activity against human HCT116 cells assessed as reduction in cell viability after 72 hrs by SRB assay; format: functional, cell-based; conditions: HCT-116, 72 h
CAPAN-1 [10] = test: Antiproliferative activity against human Capan1 cells assessed as reduction in cell viability after 72 hrs by SRB assay; format: functional, cell-based; conditions: CAPAN-1, 72 h
[11] = target: Heat shock protein HSP 90-alpha (Homo sapiens, UniProt P07900); test: biochemical
Description: Inhibition of recombinant human full length HSP90 alpha expressed in Escherichia coli cells after 1 hr by fluorescence polarization assay

[12] = Half life of compound in PBS buffer at pH 7.4 at 50 uM by HPLC analysis; format: physicochemical
[13] = Half life in human plasma at 25 uM by HPLC analysis; format: ADME, cell-free
[14] = Half life in mouse plasma at 25 uM by HPLC analysis; format: ADME, cell-free
[15] = Half life of compound in PBS buffer at pH 6.0 at 50 uM by HPLC analysis; format: physicochemical

- pIC50 (MIA PaCa-2): 7.42
- pIC50 (A549 [8]): 7.41
- pIC50 (HCT-116 [9]): 6.92
Structure (SMILES): CCNC(=O)c1noc(-c2cc(C(C)C)c(O)cc2O)c1-c1ccc(CN2CCOCC2)cc1 [LUMINESPIB]
- inhibition (HCT-116 [1]): Active
- inhibition (Mus musculus [2]): Active
- inhibition (Mus musculus [3]): Active
- inhibition (CAPAN-1 [4]): Active
- T/C (CAPAN-1 [5]): 57.03%
- inhibition (A549 [6]): Active
- pIC50 (L02): 5.87
- T/C (HCT-116 [7]): 49.9%
- pIC50 (CAPAN-1 [10]): 6.18

- pIC50 [11]: 5.77
- half-life at 50 µM [12]: 12 h
- half-life at 25 µM [13]: > 24 h
- half-life at 25 µM [14]: 17 h
- half-life at 50 µM [15]: > 24 h
Structure (SMILES): CCc1c2c(nc3ccc(O)cc13)-c1cc3c(c(=O)n1C2)COC(=O)[C@@]3(CC)OC(=O)CCNC(=O)CNc1cc(-n2nc(C(F)(F)F)c3c2CC(C)(C)CC3=O)ccc1C(N)=O

- pIC50 [11]: 5.82
- half-life at 50 µM [12]: 7 h
- half-life at 25 µM [13]: 13 h
- half-life at 25 µM [14]: 10 h
- half-life at 50 µM [15]: > 24 h
Structure (SMILES): CCc1c2c(nc3ccc(O)cc13)-c1cc3c(c(=O)n1C2)COC(=O)[C@@]3(CC)OC(=O)CNC(=O)CNc1cc(-n2nc(C(F)(F)F)c3c2CC(C)(C)CC3=O)ccc1C(N)=O

- pIC50 [11]: 7.42
Structure (SMILES): CC1(C)CC(=O)c2c(C(F)(F)F)nn(-c3ccc(C(N)=O)c(N[C@H]4CC[C@H](OC(=O)CN)CC4)c3)c2C1 [SNX 5422]

From ChEMBL document CHEMBL4354883, “Design, Synthesis, and Biological Evaluation of HSP90 Inhibitor-SN38 Conjugates for Targeted Drug Accumulation” (J Med Chem, 2020)
